Measurements as given in patent US20130078718A1, “CONVERSION OF VASCULAR ENDOTHELIAL CELLS INTO MULTIPOTENT STEM-LIKE CELLS” (PRESIDENT AND FELLOWS OF HARVARD COLLEGE, priority 2010, published 2013).
Entries after “also recorded” stand apart in the source; their conditions may differ.

How the values were obtained:
Smad2 and Smad5 = assay: Smad phosphorylation by immunoblotting; type: cell-based, human; settings: for Smad5 phosphorylation: 10 ng/mL, 1 hour; for phosphorylation of Smad2 and Smad5 (immunoblotting): HUVECs, 10 ng ml−1, 1 h
Protocol: Human umbilical vein endothelial cells (HUVEC) and human cutaneous microvascular endothelial cells (HCMEC) were provided by J. Bischoff (Children's Hospital Boston) and isolated as previously described^35. […] Cells were grown in culture using EGM-2 medium (Cambrex), containing 10% FBS and 1% Penicillin/Streptomycin, followed by human endothelial serum free medium (Gibco) 24 hours prior to all experimental conditions. Bone marrow derived mesenchymal stem cells (ScienCell Research Laboratories) were grown in mesenchymal stem cell medium (ScienCell Research Laboratories). Human corneal fibroblasts, from a stock initially provided by E. Hay (Harvard Medical School), were grown in RPMI medium, containing 10% FBS and 1% Penicillin/Streptomycin. Primary human osteoblasts, chondrocytes, and adipocytes and their respective growth media were obtained from Cell Applications Inc. Recombinant TGF-β2 and BMP4 proteins (R&D Systems) were added to the serum free culture medium for all relevant experiments at a concentration of 10 ng/mL. Cells were treated for 15 minutes to assess ALK2 phosphorylation, 1 hour to measure Smad5 phosphorylation, or 48 hours to induce EndMT. All experiments for this study were performed at minimum in triplicate.
Immunoassays were performed using the following antibodies at concentrations (and using protocols) recommended by the respective manufacturers: FSP-1 (H00006275-M01; Stressgen), ALK2 (sc-5671), Phospho-tyrosine (sc-7020), VE-cadherin (sc-6458), TIE2 (sc-324, sc-9026), STRO-1 (sc-47733), CD44 (sc-71220), CD90 (sc-9163), Osteocalcin (sc-74495, sc-23790), SOX9 (sc-20095), COL2A1 (sc-59958, sc-52658), PPARγ2 (sc-22022; Santa Cruz Biotechnology), vWF (ab68545; Abcam); His (A00174; GenScript); α-SMA (A5228), β-actin (A1978; Sigma-Aldrich). Samples were run with Criterion precast SDS-PAGE Gels (Bio-Rad). HRP-conjugated IgG TrueBlot reagents (18-8814, 18-8816, 18-8817; eBioscience) were used at a dilution of 1:1000. TrueBlot IgG beads (eBioscience) were used for immunoprecipitation experiments. Alexa Fluor secondary antibodies (Invitrogen) were used at a dilution of 1:200. Images were acquired using a Nikon 80i fluorescence microscope.
Human umbilical vein endothelial cells (HUVEC) and human cutaneous microvascular endothelial cells (HCMEC) isolated as previously described (35). […] Cells were grown in culture using EGM-2 medium (Cambrex), containing 10% FBS and 1% Penicillin/Streptomycin, followed by human endothelial serum free medium (Gibco) 24 h prior to all experimental conditions. Bone marrow derived mesenchymal stem cells (ScienCell Research Laboratories) were grown in mesenchymal stem cell medium (ScienCell Research Laboratories). Bone marrow derived hematopoietic stem cells (Lonza) were grown in HPGM medium (Lonza). Human corneal fibroblasts, from a stock provided by Dr. Elizabeth Hay (Harvard Medical School), were grown in RPMI medium, containing 10% FBS and 1% Penicillin/Streptomycin. Primary human osteoblasts, chondrocytes, and adipocytes and their respective growth media were obtained from Cell Applications, Inc. Recombinant TGF-β2, BMP4, and BMP7 proteins (R&D Systems) were added to the serum free culture medium for all relevant experiments at a concentration of 10 ng ml^−1. Recombinant VEGF (R&D Systems) was added to cultures at a concentration of 25 ng ml^−1. Dorsomorphin (Sigma-Aldrich) was added to cultures at a concentration of 5 μM.

HUVEC and HCMEC = assay: Differentiation of treated endothelial cells in osteogenic, chondrogenic or adipogenic culture medium; type: cell-based, human; settings: for alkaline phosphatase staining (osteoblasts) / alizarin red staining (matrix calcification) / gene expression of osteocalcin, osterix, COL2A1, SOX9, adiponectin, PPARγ2 (real-time quantitative PCR) / TIE2 expression in osteoblasts, chondrocytes and adipocytes derived from endothelial cells (immunoblotting): 48 hours treatment; for alkaline phosphatase staining (osteoblasts): then 7 days osteogenic medium; for alizarin red staining (matrix calcification): then 21 days osteogenic medium; for gene expression of osteocalcin, osterix, COL2A1, SOX9, adiponectin, PPARγ2 (real-time quantitative PCR): then osteogenic 7 days, chondrogenic 14 days or adipogenic 7 days, compared to vehicle; for differentiation by alkaline phosphatase, alizarin red, alcian blue or oil red O staining / protein expression of osterix, SOX9 and PPARγ2 (immunoblotting) / expression of endothelial markers TIE2, vWF, VE-cadherin, TIE1 in osteoblasts, chondrocytes, adipocytes derived from endothelial cells (immunoblot): 48 h treatment; for differentiation by alkaline phosphatase, alizarin red, alcian blue or oil red O staining: then differentiation medium 7-21 d; for protein expression of osterix, SOX9 and PPARγ2 (immunoblotting): then osteogenic 7 d, chondrogenic 14 d or adipogenic 7 d; for TIE2 expression in osteoblasts, chondrocytes and adipocytes derived from endothelial cells (immunoblotting) / expression of endothelial markers TIE2, vWF, VE-cadherin, TIE1 in osteoblasts, chondrocytes, adipocytes derived from endothelial cells (immunoblot): HCMEC, then differentiation medium
Protocol: RNA extractions were performed using the RNeasy Mini kit (Qiagen) and protocol. RNA samples were submitted to a core facility (Biopolymers Facility, Department of Genetics, Harvard Medical School) where real-time PCR experiments were conducted using the Syber Green PCR system (ABI) on an ABI 7500 cycler, with 40 cycles per sample. Cycling temperatures were as follows: denaturing 95° C.; annealing 60° C.; extension, 70° C. The following primers (Integrated DNA Technologies) were used: […]
Cells were grown in StemPro osteogenic, chondrogenic, or adipogenic culture medium (Invitrogen). Alkaline phosphatase staining was performed using the alkaline phosphatase kit and protocol (Sigma-Aldrich) on cultures grown in osteogenic medium for 7 days to detect osteoblasts. Alizarin Red (Sigma-Aldrich) staining was performed for 30 minutes on cultures grown in osteogenic medium for 21 days to detect matrix calcification. Alcian Blue (Sigma) staining was used to stain chondrocyte proteoglycans for 5 minutes in cultures grown in chondrogenic medium for 14 days. Oil Red O (Sigma-Aldrich) staining was performed for 15 minutes on cultures grown in adipogenic medium for 7 days.
Cells were grown in StemPro osteogenic, chondrogenic, or adipogenic culture medium (Invitrogen). Alkaline phosphatase staining was performed using the alkaline phosphatase kit and protocol (Sigma-Aldrich) on cultures grown in osteogenic medium for 7 d to detect osteoblasts. Alizarin Red (Sigma-Aldrich) staining was performed for 30 min on cultures grown in osteogenic medium for 21 d to detect matrix calcification. Alcian Blue (Sigma) staining was used to stain chondrocyte proteoglycans for 5 minutes in cultures grown in chondrogenic medium for 14 d. Oil Red O (Sigma-Aldrich) staining was performed for 15 min on cultures grown in adipogenic medium for 7 d. For in vivo analysis, endothelial cells were labeled with fluorescent quantum dots using the Qtracker 525 Cell Labeling Kit (Invitrogen). Cells were treated in culture to induce EndMT then absorbed into OPLA polylactic acid scaffolds (BD Biosciences). Scaffolds were surgically implanted subcutaneously into immunodeficient nude mice (Nu/Nu strain; Charles River Laboratories). Local injection of StemPro differentiation medium (described above) was performed in the area of the implants every 72 h for 6 weeks. Scaffolds were cryosectioned and stained with Alizarin Red, Alcian Blue, or Oil Red O as described above. All procedures were reviewed and approved by the Institutional Animal Care and Use Committee at Harvard Medical School.

[1] = system: Human umbilical vein endothelial cells (HUVECs) and human cutaneous microvascular endothelial cells (HCMECs); assay: Endothelial-mesenchymal transition (EndMT) in endothelial cells: morphology, marker expression by immunoblotting, flow cytometry, real-time PCR, ELISA; type: cell-based

| Substance | Smad5 phosphorylation (Smad2 and Smad5) | phosphorylation of Smad2 and Smad5 (immunoblotting) (Smad2 and Smad5) | alkaline phosphatase staining (osteoblasts) (HUVEC and HCMEC) | alizarin red staining (matrix calcification) (HUVEC and HCMEC) | gene expression of osteocalcin, osterix, COL2A1, SOX9, adiponectin, PPARγ2 (real-time quantitative PCR) (HUVEC and HCMEC) | differentiation by alkaline phosphatase, alizarin red, alcian blue or oil red O staining (HUVEC and HCMEC) | protein expression of osterix, SOX9 and PPARγ2 (immunoblotting) (HUVEC and HCMEC) | TIE2 expression in osteoblasts, chondrocytes and adipocytes derived from endothelial cells (immunoblotting) (HUVEC and HCMEC) | expression of endothelial markers TIE2, vWF, VE-cadherin, TIE1 in osteoblasts, chondrocytes, adipocytes derived from endothelial cells (immunoblot) (HUVEC and HCMEC) | staining of clonal populations for osteoblasts, chondrocytes or adipocytes (AP, AR, AB, OR) (HUVEC and HCMEC; three clonal populations of HUVEC and HCMEC, differentiation medium) | TIE2 levels after 96 h of treatment [1] |
| --- | --- | --- | --- | --- | --- | --- | --- | --- | --- | --- | --- |
| TGF-β2: Recombinant TGF-β2 protein (R&D Systems), ALK2 activating ligand, used at 10 ng/mL | phosphorylated | promoted phosphorylation of both Smad2 and Smad5 | strong positive staining | high levels of matrix calcification | dramatic increases | differentiated into other cell types | increases in protein expression | strong expression of TIE2 | showed expression of these endothelial markers | stained positive | small decrease; also recorded: slight decrease |
| BMP4: Recombinant BMP4 protein (R&D Systems), ALK2 activating ligand, used at 10 ng/mL | phosphorylated | promoted phosphorylation of both Smad2 and Smad5 | strong positive staining | high levels of matrix calcification | dramatic increases | differentiated into other cell types | increases in protein expression | strong expression of TIE2 | showed expression of these endothelial markers | – | small decrease; also recorded: slight decrease |
